Series [1] concerns spontaneous hypertensive rats. Description: Arterial pressure in spontaneous hypertensive rats after seven days of gavage, with intravenous phenylephrine challenge. Format: in vivo, rat.
Experimental: An in vivo investigation of anti-hypertension efficacy following co-administration of DGLA and aspirin in spontaneous hypertensive rats was conducted. This experiment investigated the efficacy of DGLA when co-administered chronically with aspirin to reduce the hypertensive response induced acutely by phenylephrine in spontaneous hypertensive rats. Spontaneously hypertensive adult male rats (250-300 g), bred by Charles River Laboratories, were used for this assay. […] The animals were pair-housed by group (low dose+aspirin, high dose+aspirin or aspirin alone) for the duration of the oral gavage prior to surgery.
The test article was formulated using olive oil as the vehicle. This stock solution was then administered by oral gavage once per day for seven consecutive days. A low and a high dose (50 mg/kg and 500 mg/kg) were tested.
A 5 mg/ml stock solution of aspirin was prepared by dissolving the appropriate amount of aspirin in 100% DMSO which was then diluted in water. The concentration of DMSO was less than 1%. The appropriate volume was administered by oral gavage to each animal once per day for seven consecutive days. The stock solution was stored at room temperature and was considered stable for the duration of the gavage.
The appropriate volume was administered to each animal by an intravenous injection at the end of the experiment on the surgery day. The stock solution was stored at 4° C. and was considered stable for the duration of the experiment.
Male spontaneous hypertensive rats weighing approximately 300 g arrived at the facility at least two days before beginning the oral gavage. Animals were assigned to one of three groups (low dose+aspirin, high dose+aspirin, and aspirin), and were pair-housed during the acclimation period. […]
Rats were anesthetized with a 2.5-3.0% isoflurane-O2 mixture in an induction box. […] Blood pressure, systemic arterial pressure (SAP), and heart rate were monitored continuously for a total of half an hour. Hypertension was detected as an increase in diastolic, systolic or mean blood pressure. […]
Details of series [2]: species or system human. Conditions: in vivo, po. The protocol: A single-center, double-blind, randomized, placebo-controlled, two part Phase one study was performed in healthy male and female subjects aged 18 to 45 years inclusive. The primary objective of this study was to assess the safety and plasma pharmacokinetics (PK) of orally administered single doses and orally administered multiple doses of DS107G capsules (once daily for 28 days) in healthy subjects.
Subjects were randomly assigned in a 3:1 ratio of DG107G to placebo by block randomization. Single dose part one of the study comprised three cohorts of eight subjects each, with the addition of Cohort four based on evaluation of the safety data of Cohort three by the Safety Monitoring Committee (SMC). A single oral dose of DS107G or matching placebo was administered to fasted subjects in Cohorts one to three (500, 1000, and 2000 mg, respectively) in parallel; subjects in Cohort four were administered a dose of 4000 mg following completion of Cohort three. Subjects in Cohort two received 1000 mg or matching placebo in the fed state at ≥14 days after the first dose.
Safety assessments were monitored throughout the study.
In Part one of the study, subjects in Cohorts one to three were administered a single dose of study drug (either 500-, 1000-, or 2000-mg as 500-mg DS107G capsules or matching placebo capsules) in parallel on study Day 1 after at least an 8-hour fast, according to Table 20. Cohort 4 was initiated following the review of safety data from Cohort 3 by the SMC.

On to `COc1ccccc1OCCNCC(O)COc1cccc2[nH]c3ccccc3c12` (stereo not drawn) [Carvedilol, carvedilol], for which, in series [1] (0.1 mg/kg i.v., aspirin-fed rats), the “Effect on mean systemic arterial pressure when added after phenylephrine” value is given as “significant decrease”. As to `CCCCC[C@H](O)/C=C/C=C\C/C=C\CCCCCCC(=O)O` [Batch 15-HETrE, 15-Hydroxyeicosatrienoic acid], in series [2], the “Free 15-HETrE plasma concentration” value is reported as under 100 ng/mL. For the compound `CC(=O)Oc1ccccc1C(=O)O` [Aspirin, aspirin], the “Mean arterial pressure, Average SAP” value in series [1] (Aspirin gavage 7 days, phenylephrine 20 μg/kg iv) came out at 174.3.
